The source of these data is patent US8003734B2, “Biologically tolerated low molecular weight polyethylenimines” (priority 1997, dated 2011).

Data set [1] concerns L929 mouse fibroblasts. The data set is described as follows: Cytotoxicity study, MTT assay. The class given is cell-based. How it is done: L929 mouse fibroblasts were cultured under the standard conditions with which the skilled person is familiar. These cells were sown in 96-well cell culture plates at a density of 8000 cells/well and cultured for 24 h before they were used for toxicity experiments.
The toxicity of the polymers was determined on L929 mouse fibroblasts using the MTT assay in accordance with the method of Mosmann et al. [Mosmann, J. Immunol. Methods 65: 55-63 (1983)]. The polymer dilution series were prepared in DMEM containing 10% FCS and 2 mM glutamine and sterilized by filtration (0.2 μm, Schleicher & Schuell, Dassel). The pH and osmolarity of the solutions were corrected if required. After a pre-incubation of 24 h, the cells were treated with the polymer solutions and incubated for 1, 3, 12 and 24 h. The viability of the cells was quantified UV-photometrically by measuring the formazan concentration.
In a second series of experiments, the cells were generally only treated with the polymers for 1 h, after which they were washed and then cultured for a further 3, 12 and 24 h in PEI-free cell culture medium. The evaluation was carried out as described above.
The toxicity of the PEIs was determined in vitro on L929 mouse fibroblasts, which various standard organizations recommend as the standard cell culture model for determining the cytotoxicity and biocompatibility of polymers. […]

In data set [2] the test system is pig brain capillary endothelial cells. Briefly: In-vitro transfection of primary cultures, β-galactosidase reporter gene. The class given is cell-based. Here is the method: The cells, which were incubated at 37° C., 95% relative atmospheric humidity and 5% CO2, were passaged twice a week, after having reached confluence, using trypsin/EGTA solution (2.5% stock solution of trypsin, 50 mM solution of ethylene glycol tetraacetic acid, PBS, pH 7.4, in a ratio of 1:1:8). Since the cells detached from the substratum in cell clusters rather than individually, a ⅛ passage was carried out in each case. Cerebral capillary endothelial cells were isolated and cultured in accordance with the method of Bowman et al. and Mischek et al. [Mischek et al., Cell. Tiss. Res. 256: 221-226 (1989)]. […]
The ECV 304 cells and 3T3 mouse fibroblasts, which were sown in 3 cm^2 Petri dishes, and the primary endothelial cells, which were sown in 6-well culture plates, were washed with PBS, pH 7.4, immediately before the experiments and provided with new, serum-supplemented medium. […] The cells were subsequently incubated for 60 hours and the luciferase or β-galactosidase activity was determined in analogy with the manufacturer's instructions. […]
The transfection efficiency of the PEI complexes was determined both with cell lines (3T3 mouse fibroblasts and the human endothelial cell line ECV304) and with primary cultures (pig brain capillary endothelial cells). […]

Turning to polyethylenimine [LMW PEI], in data set [1], the “cytotoxicity for fibroblasts as compared with that of HMW PEI” value was “markedly reduced”. Further, the “in-vitro maximum tolerable, noncytotoxic dose (MTD) of the complexes” value in data set [2] is 90 μg/10 μg of DNA.
